From BindingDB's records for doi:10.1111/j.1747-0285.2007.00615.x (Ariad Pharmaceuticals, 2008)

Target: Proto-oncogene tyrosine-protein kinase Src (Mus musculus, UniProt P05480)
Assay: Kinase Assay
Protocol: 2,6,9-Trisubstituted purines were evaluated for their src kinase inhibitory activities using an ELISA assay.

Sequence of Proto-oncogene tyrosine-protein kinase Src (P05480 2-535 limits assumed): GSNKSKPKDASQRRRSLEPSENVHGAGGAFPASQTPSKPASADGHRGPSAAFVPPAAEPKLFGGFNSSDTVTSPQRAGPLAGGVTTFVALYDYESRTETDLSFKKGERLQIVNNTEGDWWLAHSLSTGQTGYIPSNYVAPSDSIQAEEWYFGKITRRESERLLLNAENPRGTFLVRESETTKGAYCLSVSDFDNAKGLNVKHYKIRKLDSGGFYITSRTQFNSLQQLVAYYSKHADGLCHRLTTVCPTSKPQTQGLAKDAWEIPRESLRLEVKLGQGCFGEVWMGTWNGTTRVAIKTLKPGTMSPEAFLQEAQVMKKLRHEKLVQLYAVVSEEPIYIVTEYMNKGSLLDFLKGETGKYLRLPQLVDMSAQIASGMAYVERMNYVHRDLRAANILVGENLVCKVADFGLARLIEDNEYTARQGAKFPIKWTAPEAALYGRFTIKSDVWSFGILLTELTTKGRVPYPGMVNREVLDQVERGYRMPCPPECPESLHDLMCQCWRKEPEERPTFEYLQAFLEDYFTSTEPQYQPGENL

Row | SMILES | IC50 [nM]
1 | CCn1cnc2c(Nc3ccc(P(=O)(O)CP(=O)(O)O)cc3)nc(CCC3CCNCC3)nc21 [2,6,9-Trisubstituted Purine, 6] | 1010
2 | CCn1cnc2c(Nc3ccc(P(=O)(O)CP(=O)(O)O)cc3)nc(CC3CCNCC3)nc21 [2,6,9-Trisubstituted Purine, 5] | 2310
3 | CCn1cnc2c(Nc3ccc(P(=O)(O)CP(=O)(O)O)cc3)nc(CCCCN)nc21 [2,6,9-Trisubstituted Purine, 11] | 2110
4 | CCn1cnc2c(Nc3ccc(P(=O)(O)CP(=O)(O)O)cc3)nc(CC3CCCNC3)nc21 (stereo not drawn) [2,6,9-Trisubstituted Purine, 7] | 2300

Stronger by IC50, values ahead:

Row | IC50 [nM] | SMILES
5 | 101 | CCn1cnc2c(Nc3ccc(P(=O)(O)CP(=O)(O)O)cc3)nc(C[C@H]3CC[C@@H](N)CC3)nc21 [2,6,9-Trisubstituted Purine, 10]
6 | 205 | CCn1cnc2c(Nc3ccc(P(=O)(O)CP(=O)(O)O)cc3)nc(C[C@H]3CC[C@H](N)CC3)nc21 [2,6,9-Trisubstituted Purine, 9]
7 | 665 | CCn1cnc2c(Nc3ccc(P(=O)(O)CP(=O)(O)O)cc3)nc(C3CCNCC3)nc21 [2,6,9-Trisubstituted Purine, 4]
8 | 73 | CCn1cnc2c(Nc3ccccc3)nc([C@H]3CC[C@H](N)CC3)nc21 [2,6,9-Trisubstituted Purine, AP23517]
